In patent US20100029615A1, “BENZIMIDAZOLE DERIVATIVES” (priority 2006, published 2010):
Structures can show the parent of a compound that is named as a salt.

Biological target: T1, SMO (Mus musculus, UniProt P56726)
T1 construct: endogenous in cells; host or cells: C3H10T1/2 (ATCC #CCL-226)
Assay: Smoothened (SMO)/Sonic Hedgehog (SHh) Transient Transcriptional Activation Assay (Gli-luciferase reporter in C3H10T1/2 cells)
Format: cell-based, murine
Conditions: C3H 10T1/2, 2 μM test compound, SHh 250 ng/ml, 20 hrs, read-out: SMO CELL % INHIBITION @ 2 μM
Summary of the method: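 Luminescence (Dual-Glo) measured after 20 h co-exposure at 37 °C to 250 ng/ml human SHh and compound at 2 uM down to 2 nM final. Cells were C3H10T1/2 carrying a transfected murine 10× Gli response-element luciferase construct with pEGFP, starved 20 h in 0.5% calf serum beforehand.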

T1 sequence (P56726 33-793): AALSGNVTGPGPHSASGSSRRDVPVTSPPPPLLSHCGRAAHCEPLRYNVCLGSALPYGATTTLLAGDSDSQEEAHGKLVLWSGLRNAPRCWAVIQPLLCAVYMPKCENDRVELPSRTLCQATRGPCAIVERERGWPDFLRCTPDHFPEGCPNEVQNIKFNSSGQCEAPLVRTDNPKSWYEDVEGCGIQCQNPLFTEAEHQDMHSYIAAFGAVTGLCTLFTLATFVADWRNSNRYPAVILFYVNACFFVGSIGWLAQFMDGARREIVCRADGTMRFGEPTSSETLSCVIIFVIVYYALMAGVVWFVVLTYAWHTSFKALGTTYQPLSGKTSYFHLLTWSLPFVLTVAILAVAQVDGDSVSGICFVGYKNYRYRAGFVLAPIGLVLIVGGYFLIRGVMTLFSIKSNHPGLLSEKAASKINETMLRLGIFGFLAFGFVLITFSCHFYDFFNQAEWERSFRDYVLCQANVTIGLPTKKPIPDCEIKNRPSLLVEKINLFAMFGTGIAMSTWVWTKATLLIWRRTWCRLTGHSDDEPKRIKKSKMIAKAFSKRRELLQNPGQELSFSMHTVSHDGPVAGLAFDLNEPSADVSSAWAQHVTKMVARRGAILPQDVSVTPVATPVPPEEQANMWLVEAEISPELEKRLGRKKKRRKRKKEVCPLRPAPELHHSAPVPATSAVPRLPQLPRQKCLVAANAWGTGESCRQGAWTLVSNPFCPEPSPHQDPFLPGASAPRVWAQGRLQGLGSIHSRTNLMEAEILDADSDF

| Compound | inhibition at 2 µM |
| --- | --- |
| CCc1c(C(=O)N[C@@H]2CCC[C@H](c3nc4ccccc4[nH]3)C2)[nH]c2ccccc12 [Example 214, N-[(1R,3S)-3-(1H-benzimidazol-2-yl)cyclohexyl]-3-ethyl-1H-indole-2-carboxamide triflouroacetate] | 100% |
| Cc1nc2cc(C(=O)N[C@@H]3CCC[C@H](c4nc5ccccc5[nH]4)C3)ccc2s1 [Example 215, N-[(1R,3S)-3-(1H-benzimidazol-2-yl)cyclohexyl]-2-methyl-1,3-benzothiazole-5-carboxamide triflouroacetate] | 46% |
| O=C(N[C@@H]1CCC[C@H](c2nc3ccccc3[nH]2)C1)c1ccc2scnc2c1 [Example 216, N-[(1R,3S)-3-(1H-benzimidazol-2-yl)cyclohexyl]-1,3-benzothiazole-5-carboxamide triflouroacetate] | 86% |
| Cn1c(=O)[nH]c2cc(C(=O)N[C@@H]3CCC[C@H](c4nc5ccccc5[nH]4)C3)ccc21 [Example 217, N-[(1R,3S)-3-(1H-benzimidazol-2-yl)cyclohexyl]-1-methyl-2-oxo-2,3-dihydro-1H-benzimidazole-5-carboxamide triflouroacetate] | 85% |
| O=C(N[C@@H]1CCC[C@H](c2nc3ccccc3[nH]2)C1)[C@@H]1CCc2ccccc2O1 [Example 218, (2S)-N-[(1R,3S)-3-(1H-benzimidazol-2-yl)cyclohexyl] chromane-2-carboxamide triflouroacetate] | 96% |
| O=C1Cc2cc(C(=O)N[C@@H]3CCC[C@H](c4nc5ccccc5[nH]4)C3)ccc2N1 [Example 219, N-[(1R,3S)-3-(1H-benzimidazol-2-yl)cyclohexyl]-2-oxoindoline-5-carboxamide triflouroacetate] | 87% |
| O=C1CCc2cc(C(=O)N[C@@H]3CCC[C@H](c4nc5ccccc5[nH]4)C3)ccc2N1 [Example 220, N-[(1R,3S)-3-(1H-benzimidazol-2-yl)cyclohexyl]-2-oxo-1,2,3,4-tetrahydroquin-oline-6-carboxamide triflouroacetate] | 81% |
| CCc1ccc2nc(C(=O)N[C@@H]3CCC[C@H](c4nc5ccccc5[nH]4)C3)cn2c1 [Example 221, N-[(1R,3S)-3-(1H-benzimidazol-2-yl)cyclohexyl]-6-ethylimidazo[1,2-a]pyridine-2-carboxamide triflouroacetate] | 48% |
| COc1cc(C(=O)N[C@@H]2CCC[C@H](c3nc4ccccc4[nH]3)C2)cc2c1OCO2 [Example 222, N-[(1R,3S)-3-(1H-benzimidazol-2-yl)cyclohexyl]-7-methoxy-1,3-benzodioxole-5-carboxamide triflouroacetate] | 52% |
| O=C(N[C@@H]1CCC[C@H](c2nc3ccc(C(F)(F)F)cc3[nH]2)C1)c1ccc2c(c1)OCCO2 [Example 223, N-((1R,3S)-3-[6-(trifluoromethyl)-1H-benzimidazol-2-yl]cyclohexyl]-2,3-dihydro-1,4-benzodioxine-6-carboxamide HCl] | 105% |
| O=C(N[C@@H]1CCC[C@H](c2nc3ccc(Br)cc3[nH]2)C1)c1ccc2c(c1)OCCO2 [Example 224, N-[(1R,3S)-3-(6-bromo-1H-benzimidazol-2-yl)cyclohexyl]-2,3-dihydro-1,4-benzodioxine-6-carboxamide HCl] | 106% |
| O=C(NCCCCl)N[C@@H]1CCC[C@H](c2nc3ccccc3[nH]2)C1 [Example 225, 1-((1R,3S)-3-(1H-benzo[d]imidaz-ol-2-yl)cyclohexyl)-3-(3-chloropropyl)-urea] | 70% |
| O=C(NC1CCCC1)N[C@@H]1CCC[C@H](c2nc3ccccc3[nH]2)C1 [Example 226, 1-((1R,3S)-3-(1H-benzo[d]imidaz-ol-2-yl)cyclohexyl)-3-cyclopentylurea] | 63% |
| O=C(Nc1cc(Cl)cc(Cl)c1)N[C@@H]1CCC[C@H](c2nc3ccccc3[nH]2)C1 [Example 227, 1-[(1R,3S)-3-(1H-benzimidazol-2-yl)cyclohexyl]-3-(3,5-dichlorophenyl) urea] | 115% |
| N#Cc1ccc(NC(=O)N[C@@H]2CCC[C@H](c3nc4ccccc4[nH]3)C2)cc1 [Example 228, 1-[(1R,3S)-3-(1H-benzimidazol-2-yl)cyclohexyl]-3-(4-cyanophenyl) urea] | 109% |
| O=C(Nc1ccc(-c2ccccc2)s1)N[C@@H]1CCC[C@H](c2nc3ccccc3[nH]2)C1 [Example 229, 1-[(1R,3S)-3-(1H-benzimidazol-2-yl)cyclohexyl]-3-(5-phenyl-2-thienyl)urea] | 108% |
| O=C(Nc1cc(F)cc2c1OCOC2)N[C@@H]1CCC[C@H](c2nc3ccccc3[nH]2)C1 [Example 230, 1-[(1R,3S)-3-(1H-benzimidazol-2-yl)cyclohexyl]-3-(6-fluoro-4H-1,3-benzodioxol-8-yl)urea] | 111% |
| N#Cc1cccc(NC(=O)N[C@@H]2CCC[C@H](c3nc4ccccc4[nH]3)C2)c1 [Example 231, 1-[(1R,3S)-3-(1H-benzimidazol-2-yl)cyclohexyl] 3-(3-cyanophenyl)-urea] | 103% |

| Compound | inhibition at 2 µM |
| --- | --- |
| COc1ccc(NC(=O)N[C@@H]2CCC[C@H](c3nc4ccccc4[nH]3)C2)cc1 [Example 232, 1-[(1R,3S)-3-(1H-benzimidazol-2-yl)cyclohexyl]-3-(4-methoxyphenyl) urea] | 103% |
| Cc1noc(C)c1NC(=O)N[C@@H]1CCC[C@H](c2nc3ccccc3[nH]2)C1 [Example 233, 1-((1R,3S)-3-(1H-benzo[d]imidaz-ol-2-yl)cyclohexyl)-3-(3,5-dimethylisoxaz-ol-4-yl)urea] | 48% |
| O=C(Nc1ccc(Cl)cc1Cl)N[C@@H]1CCC[C@H](c2nc3ccccc3[nH]2)C1 [Example 234, 1-[(1R,3S)-3-(1H-benzimidazol-2-yl)cyclohexyl]-3-(2,4-dichlorophenyl) urea] | 108% |
| COc1ccc(NC(=O)N[C@@H]2CCC[C@H](c3nc4ccccc4[nH]3)C2)c(C)c1 [Example 235, 1-[(1R,3S)-3-(1H-benzimidazol-2-yl)cyclohexyl]-3-(4-methoxy-2-methylphenyl) urea] | 98% |
| CC(C)c1ccc(NC(=O)N[C@@H]2CCC[C@H](c3nc4ccccc4[nH]3)C2)cc1 [Example 236, 1-[(1R,3S)-3-(1H-benzimidazol-2-yl)cyclohexyl]-3-(4-isopropylphenyl) urea] | 108% |
| O=C(Nc1ccc(Cl)c(Cl)c1)N[C@@H]1CCC[C@H](c2nc3ccccc3[nH]2)C1 [Example 237] | 111% |
| O=C(Nc1ccc(Cl)c(C(F)(F)F)c1)N[C@@H]1CCC[C@H](c2nc3ccccc3[nH]2)C1 [Example 238, 1-[(1R,3S)-3-(1H-benzimidazol-2-yl)cyclohexyl]-3-[4-chloro-3-(trifluoromethyl)phenyl]urea] | 114% |
| COc1ccc2[nH]c([C@@H]3CCC[C@H](NC(=O)c4ccc5c(c4)OCCO5)C3)nc2c1 [Example 239, N-((1S,3R)-3-(5-methoxy-1H-benzo[d]imidaz-ol-2-yl)cyclohexyl)-2,3-dihydrobenzo[b] [1,4]dioxine-6-carboxamide HCl] | 23% |
| Cn1c([C@@H]2CCC[C@@H](NC(=O)c3ccc4c(c3)OCCO4)C2)nc2ccccc21 [Example 240, N-([1R,3R]-3-(1-methyl-1H-benzo[d]imidaz-ol-2-yl)cyclohexyl)-2,3-dihydrobenzo[b] [1,4]dioxine-6-carboxamide HCl] | 60% |
| O=C(N[C@@H]1CCC[C@@H](c2nc3ccccc3[nH]2)C1)c1ccc2c(c1)OCCO2 [Example 241] | 63% |
| O=C(N[C@@H]1CCC[C@H](c2nc3ccccc3[nH]2)C1)c1ccc2c(n1)OCCO2 [Example 242, N-((1R,3S)-3-(1H-benzo[d]imidaz-ol-2-yl)cyclohexyl)-2,3-dihydro-[1,4]dioxino[2,3-b]pyridine-6-carboxamide] | 86% |
| O=C(N[C@@H]1CCC[C@H](c2nc3ccccc3[nH]2)C1)c1cnc2c(c1)OCCO2 [Example 243, N-((1R,3S)-3-(1H-benzo[d]imidaz-ol-2-yl)cyclohexyl)-2,3-dihydro-[1,4]dioxino[2,3-b]pyridine-7-carboxamide] | 96% |
| Cn1c(C23CCCC(NC(=O)c4ccc5c(c4)OCCO5)(C2)C3)nc2ccccc21 [Example 244, N-(5-(1-methyl-1H-benzo[d]imidaz-ol-2-yl)bicyclo[3.1.1]heptan-1-yl)-2,3-dihydrobenzo[b] [1,4]dioxine-6-carboxamide] | 66% |
| COc1cc(OC)cc(C(=O)NC23CCCC(c4nc5ccccc5n4C)(C2)C3)c1 [Example 245, 3,5-dimethoxy-N-(5-(1-methyl-1H-benzo[d]imidaz-ol-2-yl)bicyclo[3.1.1]heptan-1-yl)benzamide] | 49% |
| O=C(N[C@H]1CCC[C@H](c2nc3ccccc3[nH]2)C1)c1cc(C2CC2)n[nH]1 [Example 246, N-(3-(1H-benzo[d]imidaz-ol-2-yl)cyclohexyl)-3-cyclopropyl-1H-pyrazole-5-carboxamide HCl] | 44% |
| O=C1CCc2cc(C(=O)N[C@H]3CCC[C@H](c4nc5ccccc5[nH]4)C3)ccc2N1 [Example 247, N-(3-(1H-benzo[d]imidaz-ol-2-yl)cyclohexyl)-2-oxo-1,2,3,4-tetrahydroquino-line-6-carboxamide HCl] | 98% |
| COc1ccc2cc(C(=O)N[C@H]3CCC[C@H](c4nc5ccccc5[nH]4)C3)n(C)c2c1 [Example 248, N-(3-(1H-benzo[d]imidaz-ol-2-yl)cyclohexyl)-6-methoxy-1-methyl-1H-indole-2-carboxamide HCl] | 74% |
| CN1C(=O)COc2ccc(C(=O)N[C@H]3CCC[C@H](c4nc5ccccc5[nH]4)C3)cc21 [Example 249, N-(3-(1H-benzo[d]imidaz-ol-2-yl)cyclohexyl)-4-methyl-3-oxo-3,4-dihydro-2H-benzo[d][1,4]ox-azine-6-carboxamide HCl] | 109% |
